This is an account of results in patent publication US4477464A, “Hetero-benzazepine derivatives and their pharmaceutical use” (Ciba-Geigy Corporation, priority 1983, dated 1984).

pIC50: −log10 of the molar value. Counter-ions that a name gives are not always drawn.

Test [1] addresses T1, angiotensin-converting enzyme (Oryctolagus cuniculus, UniProt P12822).
T1 construct: angiotensin-converting enzyme preparation (from lungs of adult male rabbits); from tissue; host or cells: lungs of adult male rabbits
T1 sequence (P12822 34-1310): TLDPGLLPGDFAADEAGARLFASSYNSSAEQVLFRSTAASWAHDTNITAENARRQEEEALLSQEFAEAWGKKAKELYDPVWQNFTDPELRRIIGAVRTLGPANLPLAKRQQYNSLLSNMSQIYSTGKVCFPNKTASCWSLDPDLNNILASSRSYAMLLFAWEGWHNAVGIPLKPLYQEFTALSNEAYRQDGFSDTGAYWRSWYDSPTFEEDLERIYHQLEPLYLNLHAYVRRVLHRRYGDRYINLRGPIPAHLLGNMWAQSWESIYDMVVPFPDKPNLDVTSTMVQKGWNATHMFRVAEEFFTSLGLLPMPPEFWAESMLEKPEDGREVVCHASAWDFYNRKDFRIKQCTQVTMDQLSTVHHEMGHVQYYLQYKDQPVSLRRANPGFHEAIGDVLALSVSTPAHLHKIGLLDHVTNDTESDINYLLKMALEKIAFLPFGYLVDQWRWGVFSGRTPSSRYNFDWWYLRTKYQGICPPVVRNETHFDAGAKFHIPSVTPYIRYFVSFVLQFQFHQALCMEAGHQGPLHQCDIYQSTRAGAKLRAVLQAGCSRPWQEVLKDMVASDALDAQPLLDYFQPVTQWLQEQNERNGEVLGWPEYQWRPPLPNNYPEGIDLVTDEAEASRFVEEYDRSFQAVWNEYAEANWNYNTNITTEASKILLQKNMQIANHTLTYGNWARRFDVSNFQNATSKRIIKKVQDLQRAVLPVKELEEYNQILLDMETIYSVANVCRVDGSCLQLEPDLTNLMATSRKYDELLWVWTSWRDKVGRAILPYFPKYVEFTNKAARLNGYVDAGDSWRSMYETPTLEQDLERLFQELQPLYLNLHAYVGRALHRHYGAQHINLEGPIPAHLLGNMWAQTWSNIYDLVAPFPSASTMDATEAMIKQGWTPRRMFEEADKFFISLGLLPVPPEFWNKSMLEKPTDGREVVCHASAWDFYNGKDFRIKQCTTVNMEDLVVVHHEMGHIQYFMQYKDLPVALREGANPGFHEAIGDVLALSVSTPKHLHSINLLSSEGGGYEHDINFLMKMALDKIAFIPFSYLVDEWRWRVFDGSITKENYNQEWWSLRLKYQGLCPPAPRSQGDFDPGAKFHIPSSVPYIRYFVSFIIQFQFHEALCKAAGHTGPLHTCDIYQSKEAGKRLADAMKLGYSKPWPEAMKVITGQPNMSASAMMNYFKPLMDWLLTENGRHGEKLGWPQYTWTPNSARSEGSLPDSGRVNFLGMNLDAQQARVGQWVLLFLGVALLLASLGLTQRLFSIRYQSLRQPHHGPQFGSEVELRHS
Nature of the test: in vitro inhibition of angiotensin-converting enzyme (hippuryl-histidyl-leucine substrate). It counts as biochemical, rabbit. Particulars: angiotensin-converting enzyme preparation from lungs of adult male rabbits, 37° C., 30 minutes. Here is the method:
Biophys. Acta 293, 451 (1973). According to this method, said compounds are dissolved at about 1 mM concentration in phosphate buffer. To 100 microliters of solutions of the test compound in phosphate buffer, diluted to the desired concentration, are added 100 microliters of 5 mM hippuryl-histidyl-leucine in phosphate buffer, followed by 50 microliters of the angiotensin-converting enzyme preparation (from lungs of adult male rabbits) in Tris buffer, containing potassium and magnesium chloride, as well as sucrose. Said solutions are incubated at 37° C. for 30 minutes and combined with 0.75 ml of 0.6N aqueous sodium hydroxide to stop further reaction. Then 100 microliters of a 0.2% solution of o-phthalaldehyde in methanol are added at room temperature, and 10 minutes later 100 microliters of 6N hydrochloric acid. These samples are read against water in a spectrophotometer set at 360 nm, and the optical densities thereof estimated. They are corrected for the standard curve via a conversion factor expressing nanomoles of histidyl-leucine formed during said 30 minute incubation period. The results are plotted against drug concentration to determine the IC50, i.e., the drug concentration which gives half the activity of the control sample containing no drug.

Test [2] relates to angiotensin-converting enzyme. The experiment in a line: inhibition of Angiotensin I induced pressor response in normotensive rats. It counts as in vivo, rat. Particulars: normotensive anesthetized rats, 10 mg/kg p.o., measured 2 to 4 hours after administration. Here is the method:
Angiotensin I is hydrolyzed by the action of said converting enzyme to the potent pressor substance Angiotensin II. The inhibition of said enzyme prevents the generation of Angiotensin II from I and, therefore, attenuates any pressor response following an Angiotensin I challenge.
The corresponding in vivo test is performed with male, normotensive rats, which are anesthetized with sodium 5-ethyl-5-(1-methylpropyl)-2-thiobarbiturate. A femoral artery and saphenous vein are cannulated respectively for direct blood pressure measurement and the i.v. administration of Angiotensin I and a compound of this invention. After the basal blood pressure is stabilized, pressor responses to 3 challenges of 333 ng/kg angiotensin I i.v., at 5 minute intervals, are obtained. Such pressure responses are usually again obtained at time intervals after i.v. or p.o. administration of the compound to be tested, and compared with the initial responses. Any observed decrease of said pressor response is an indication of Angiotensin I converting enzyme inhibition. Illustrative of this invention, the compound of example 3a inhibits the pressor response following angiotensin I challenge by about 70% at a dose of 10 mg/kg p.o. as measured 2 to 4 hours after administration.

Test [3] has as its system spontaneously hypertensive rats. Nature of the test: antihypertensive effect in spontaneously hypertensive rats, indirect systolic pressure. It counts as in vivo, rat. Conditions: 10 mg/kg p.o. Here is the method: The in vivo lowering effect on the blood pressure is recorded, either directly by means of a catheter, placed in the test animal's femoral artery, or indirectly by sphygmomanometry at the rat's tail or a transducer. The blood pressure is recorded in mm Hg prior to and after dosing.
Thus the antihypertensive effects are demonstrable in spontaneously hypertensive rats by indirect measurement of systolic pressure. Conscious rats are placed individually in restraint cages within a gently warmed chamber. A rubber pulse sensor is placed distal to an inflatable occlusive cuff on each rat's tail. The cuff is periodically inflated to occlude the tail artery, and systolic pressure is recorded as the point where the first discernible pulse emerges along the decaying calibrated pressure curve. After obtaining control values of blood pressure and heart rate, test compounds are administered orally once daily for 4 consecutive days. Additional blood pressure measurements are usually made at 2.0, 4.0 and 23.5 hours after each daily dosing, and responses are compared to those of rats dosed with the treatment vehicle.
Illustrative of the invention, the compound of example 3a at a dose of 10 mg/kg p.o. lowers blood pressure by about 35 mm Hg.

In the case of `O=C(O)CN1C(=O)[C@@H](NC(CCc2ccccc2)C(=O)O)CSc2ccccc21` (stereo partly drawn) [Example 2, (3R)-[N-(1-carboxy-3-phenylpropyl)amino]-5-carboxymethyl-2,3-dihydro-1,5-benzothiazepin-4(5H)-one], the pIC50 (commonly the IC50 on a negative log10 scale, so that one unit is a factor of ten) in test [1] is roughly 8.00.
Regarding `CCOC(=O)[C@H](CCc1ccccc1)N[C@H]1CSc2ccccc2N(CC(=O)O)C1=O` [Example 3a, (3R)-{N-[(1S)-carboethoxy-3-phenylpropyl]amino}-5-carboxymethyl-2,3-dihydro-1,5-benzothiazepin-4(5H)-one hydrochloride], in test [2], the “inhibition of pressor response following angiotensin I challenge” value is given as “about 70%”. Besides, the “lowering of blood pressure” value in test [3] was “about 35 mm Hg”.
The compound `O=C(O)CN1C(=O)[C@@H](N[C@@H](CCc2ccccc2)C(=O)O)CSc2ccccc21` [Example 6, (3R)-{N-[(1S)-carboxy-3-phenylpropyl]amino}-5-carboxymethyl-2,3-dihydro-1,5-benzothiazepin-4(5H)-one] gave a pIC50 in test [1] of roughly 8.52.
The same measure, in the same setting: under `O=C(O)CN1C(=O)[C@@H](N[C@@H](CCc2ccccc2)C(=O)O)C[S+]([O-])c2ccccc21` (stereo partly drawn) [Example 12, (3R)-{N-[(1S)-carboxy-3-phenylpropyl]amino}-5-carboxymethyl-2,3-dihydro-1-oxo-1,5-benzothiazepin-4(5H)-one] stands roughly 8.22; under `NCCCCC(N[C@H]1CSc2ccccc2N(CC(=O)O)C1=O)C(=O)O` (stereo partly drawn) [Example 14, (3R)-[N-(1-carboxy-5-aminopentyl)amino]-5-carboxymethyl-2,3-dihydro-1,5-benzothiazepin-4(5H)-one dihydrochloride], roughly 7.55.
